# From ChEMBL document CHEMBL3045001, “Synthesis and evaluation of analgesic, anti-inflammatory, and anticancer activities of new pyrazole-3(5)-carboxylic acid derivatives” (Med Chem Res, 2013)
# How the values were obtained:
# [1] = tested on: Mus musculus; test: Anti-inflammatory activity in carrageenan-induced Mus musculus Swiss albino (mouse) paw edema model assessed as inhibition of paw edema at 100 mg/kg, sc administered 30 min prior to carrageenan injection measured after 90 min; format: functional; settings: route subcutaneous
# [2] = tested on: MDA-MB-231; test: Anticancer activity against Homo sapiens (human) estrogen-independent MDA-MB-231 cells assessed as cell viability at 50 uM after 48 hr by MTT assay (reference value: 100 +/-3.71%); format: functional; settings: MDA-MB-231, 48 h, read-out: Activity
# [3] = tested on: HL-60; test: Anticancer activity against Homo sapiens (human) HL60 cells assessed as cell viability at 50 uM after 48 hr by MTT assay (reference value: 100 +/-8.41%); format: functional; settings: HL-60, 48 h, read-out: Activity
# [4] = tested on: Mus musculus; test: Anti-inflammatory activity in carrageenan-induced Mus musculus Swiss albino (mouse) paw edema model assessed as paw swelling at 100 mg/kg, sc administered 30 min prior to carrageenan injection measured after 90 min (reference value: 38.0 +/-2.0 x10'-2 mm); format: functional; settings: route subcutaneous
# [5] = species on record: Mus musculus; test: Acute toxicity against Mus musculus Swiss albino (mouse) assessed as mortality after 48 hr; format: organism-based; settings: in vivo
# [6] = tested on: Mus musculus; test: Anti-inflammatory activity in carrageenan-induced Mus musculus Swiss albino (mouse) paw edema model assessed as inhibition of paw edema at 100 mg/kg, sc administered 30 min prior to carrageenan injection measured after 180 min; format: functional; settings: route subcutaneous
# [7] = tested on: Mus musculus; test: Anti-inflammatory activity in carrageenan-induced Mus musculus Swiss albino (mouse) paw edema model assessed as inhibition of paw edema at 100 mg/kg, sc administered 30 min prior to carrageenan injection measured after 270 min; format: functional; settings: route subcutaneous
# [8] = tested on: Mus musculus; test: Analgesic activity in Mus musculus Swiss albino (mouse) assessed as inhibition of p-benzoquinone-induced abdominal writhing at 100 mg/kg, sc administered 30 min prior to PBQ injection measured after 5 min for 15 min; format: functional, Abdomen; set-up: scale not given: the % may be the effect or the level left; settings: route subcutaneous
# [9] = tested on: Mus musculus; test: Anti-inflammatory activity in carrageenan-induced Mus musculus Swiss albino (mouse) paw edema model assessed as paw swelling at 100 mg/kg, sc administered 30 min prior to carrageenan injection measured after 180 min (reference value: 51.0 +/-3.0 x10'-2 mm); format: functional; settings: route subcutaneous
# [10] = tested on: HeLa; test: Anticancer activity against Homo sapiens (human) HeLa cells assessed as cell viability at 50 uM after 24 hr by MTT assay (reference value: 100 +/-4.13%); format: functional; settings: read-out: Activity
# [11] = species on record: Mus musculus; test: Acute toxicity against Mus musculus Swiss albino (mouse) assessed as morbidity after 48 hr; format: organism-based; settings: in vivo
# [12] = tested on: Raji; test: Anticancer activity against Homo sapiens (human) Raji cells assessed as cell viability at 50 uM after 48 hr by MTT assay (reference value: 100 +/-4.26%); format: functional; settings: read-out: Activity
# [13] = tested on: HeLa; test: Anticancer activity against Homo sapiens (human) HeLa cells assessed as cell viability at 50 uM after 48 hr by MTT assay (reference value: 100 +/-3.8%); format: functional; settings: read-out: Activity
# [14] = tested on: Mus musculus; test: Anti-inflammatory activity in carrageenan-induced Mus musculus Swiss albino (mouse) paw edema model assessed as inhibition of paw edema at 100 mg/kg, sc administered 30 min prior to carrageenan injection measured after 360 min; format: functional; settings: route subcutaneous
# [15] = tested on: Mus musculus; test: Anti-inflammatory activity in carrageenan-induced Mus musculus Swiss albino (mouse) paw edema model assessed as paw swelling at 100 mg/kg, sc administered 30 min prior to carrageenan injection measured after 360 min (reference value: 77.0 +/-3.0 x10'-2 mm); format: functional; settings: route subcutaneous
# [16] = tested on: MDA-MB-231; test: Anticancer activity against Homo sapiens (human) estrogen-independent MDA-MB-231 cells assessed as cell viability at 50 uM after 24 hr by MTT assay (reference value: 100 +/-7.08%); format: functional; settings: MDA-MB-231, 24 h, read-out: Activity
# [17] = tested on: MCF7; test: Anticancer activity against Homo sapiens (human) MCF7 cells assessed as cell viability at 50 uM after 48 hr by MTT assay (100 +/-5.08%); format: functional; settings: MCF7, 48 h, read-out: Activity
# [18] = tested on: HL-60; test: Anticancer activity against Homo sapiens (human) HL60 cells assessed as cell viability at 50 uM after 24 hr by MTT assay (reference value: 100 +/-3.55%); format: functional; settings: HL-60, 24 h, read-out: Activity
# [19] = tested on: Raji; test: Anticancer activity against Homo sapiens (human) Raji cells assessed as cell viability at 50 uM after 24 hr by MTT assay (reference value: 100 +/-5.02%); format: functional; settings: read-out: Activity
# [20] = tested on: MCF7; test: Anticancer activity against Homo sapiens (human) MCF7 cells assessed as cell viability at 50 uM after 24 hr by MTT assay (reference value: 100 +/-2.74%); format: functional; settings: MCF7, 24 h, read-out: Activity
# [21] = tested on: Mus musculus; test: Anti-inflammatory activity in carrageenan-induced Mus musculus Swiss albino (mouse) paw edema model assessed as paw swelling at 100 mg/kg, sc administered 30 min prior to carrageenan injection measured after 270 min (rvb = 75.0 +/-3.0 x10'-2 mm); format: functional; settings: route subcutaneous
Compound,inhibition in vivo at 100 mg/kg [1],viability at 50 µM [2],viability at 50 µM [3],Activity [4],Activity [5],inhibition in vivo at 100 mg/kg [6],inhibition in vivo at 100 mg/kg [7],Activity [8],Activity [9],viability at 50 µM [10],Activity [11],viability at 50 µM [12],viability at 50 µM [13],inhibition in vivo at 100 mg/kg [14],Activity [15],viability at 50 µM [16],viability at 50 µM [17],viability at 50 µM [18],viability at 50 µM [19],Activity [21],further results
Cc1ccc(-c2cc(C(=O)Oc3ccc(C(C)(C)C)cc3)nn2Cc2ccccc2)cc1,26%,70.5%,69.7%,28 ×10⁻² mm,Non-toxic,28.5%,54%,73.4%,37 ×10⁻² mm,118%,Non-toxic,95.3%,62.1%,58.7%,32 ×10⁻² mm,93.7%,92.4%,134%,111%,34 ×10⁻² mm,viability at 50 µM [20]: 90.9%
CCOC(=O)C1CCN(C(=O)c2cc(-c3ccc(C)cc3)nn2Cc2ccccc2)CC1,26.7%,64%,91.7%,28 ×10⁻² mm,Non-toxic,33.3%,54.4%,77%,34 ×10⁻² mm,53.5%,Non-toxic,97.3%,49.9%,57.6%,33 ×10⁻² mm,96.5%,88.2%,102%,77%,34 ×10⁻² mm,viability at 50 µM [20]: 54.2%
Cc1ccc(-c2cc(C(=O)NCc3cccnc3)n(Cc3ccccc3)n2)cc1,3.7%,43.1%,41.9%,36 ×10⁻² mm,Non-toxic,16.5%,24.4%,,43 ×10⁻² mm,74.9%,Non-toxic,93.4%,82.6%,25.3%,57 ×10⁻² mm,65.1%,100%,31.7%,86.4%,57 ×10⁻² mm,viability at 50 µM [20]: 105%
Cc1ccc(-c2cc(C(=O)Oc3ccc(C(C)C)cc3)nn2Cc2ccccc2)cc1,27.4%,66.2%,83.6%,27 ×10⁻² mm,Non-toxic,18.7%,50.4%,45.7%,42 ×10⁻² mm,79.6%,Non-toxic,97%,54.6%,47.8%,40 ×10⁻² mm,106%,82.6%,120%,90.1%,37 ×10⁻² mm,viability at 50 µM [20]: 79.6%
COc1ccc(CN2CCN(C(=O)c3cc(-c4ccc(C)cc4)nn3Cc3ccccc3)CC2)c(OC)c1OC,17.8%,,,31 ×10⁻² mm,Non-toxic,44.7%,74.4%,53%,28 ×10⁻² mm,,Non-toxic,,,53.3%,36 ×10⁻² mm,,,,,19 ×10⁻² mm,
Cc1ccc(-c2cc(C(=O)NNc3ccc4ccccc4n3)n(Cc3ccccc3)n2)cc1,23%,,,29 ×10⁻² mm,Non-toxic,24.1%,44.4%,48.9%,39 ×10⁻² mm,,Non-toxic,,,42.8%,44 ×10⁻² mm,,,,,42 ×10⁻² mm,
Cc1ccc(-c2cc(C(=O)Oc3ccc(C(C)(C)C)cc3)n(Cc3ccccc3)n2)cc1,,62.9%,112%,40 ×10⁻² mm,Non-toxic,35%,50%,10.9%,33 ×10⁻² mm,83.2%,Non-toxic,103%,81.4%,62%,29 ×10⁻² mm,119%,94.9%,120%,94.9%,38 ×10⁻² mm,viability at 50 µM [20]: 93.2%
Cc1ccc(-c2cc(C(=O)Oc3ccc(C(C)C)cc3)n(Cc3ccccc3)n2)cc1,,50.2%,126%,38.3 ×10⁻² mm,Non-toxic,24%,29%,33%,39 ×10⁻² mm,87.2%,Non-toxic,94.2%,69.7%,31.5%,53 ×10⁻² mm,71.9%,90.5%,115%,105%,53 ×10⁻² mm,viability at 50 µM [20]: 80.3%
